One data set deals with T1, GPR40 (Homo sapiens, UniProt O14842).
T1 construct: host or cells: CHO-K1 (Cell bank of the Chinese Academy of Sciences, GNHa 7), retrovirus infection
As to the kind of experiment: Agonist activity on CHO-K1/GPR40 cell (Fluo-4 calcium fluorescence). Particulars: CHO-K1 cell line expressing GPR40, calcium ion fluorescence. It counts as cell-based. From the text:
Agonist activity of compounds of the present disclosure on CHO-K1/GPR40 cell.
The following method was used to determine the agonist activity of compounds of the present disclosure on GPR40. The experiment process is described as follows:
CHO-K1/GPR40 cell (CHO-K1 cell line expressing GPR40, which was constructed using retrovirus infection method, CHO-K1/GPR40 cell for short, wherein CHO-K1 cell was purchased from Cell bank of the Chinese Academy of Sciences, catalogue number GNHa 7; GPR40 cDNA was purchased from Guangzhou FulenGen Co., Ltd, catalogue number EX-UO270-MO2) was inoculated in a 96-well plate with an inoculation density of 25000 cells/well. The cell plate was incubated at 37° C. and 5% CO2 for 24 hours. The cell culture fluid was discarded during the experiment, the cells were washed with buffer solution (1×HBSS+20 mM HEPES pH 7.4) once, 100 μL of Fluo-4 calcium ion dye was quickly added into each well, incubated at 37° C. in the dark for 30 minutes, and then at room temperature for another 30 minutes. During the determination, the baseline value of each well was read at first, and then different concentrations of drug were added to the wells (50 μL/well), and the fluorescence values were then read. The fluorescence excitation wavelength was 494 nm and the emission wavelength was 516 nm. The increase of fluorescence intensity was proportional to calcium ion level in the cells. Cell response rate of each cell/(The maximum fluorescence value−The minimum fluorescence value)/The minimum fluorescence value. EC50 values of the compounds were calculated

Data set [1] has as its system ICR mice fed on a high fat diet. Briefly: Oral glucose tolerance test (OGTT) in glucose load mice fed on a high fat diet. It counts as in vivo. Particulars: blood glucose AUC, high fat diet ICR male mice. How it is done: ICR mice fed on a high fat diet were used as test animals. The effect of oral administration of a single dose of the compounds of the present disclosure on oral glucose tolerance test (OGTT) of glucose load mice was studied.
Compounds of Example 1, Example 2, Example 13, Example 16, Example 18, Example 19 and Example 26
Healthy ICR male mice were purchased from SINO-BRITSH SIPPR/BK LAB. ANIMAL LTD., CO, License number: SCXK (Shanghai) 2008-0016
The test compounds were added to aqueous 0.5% CMC-Na solution to prepare the corresponding concentration suspension using microwave.
After an overnight fast for 16 hours, male mice fed on a high fat diet were weighed, and the basic blood glucose was determined. The mice were randomly divided into a Blank group and the group of each test compound of the present disclosure according to the level of blood glucose.
The dosage of administration was 20 mg/kg or 40 mg/kg, and the Blank group was administered aqueous 0.5 CMC-Na solution.
20% Glucose solution was administered 15 minutes after intragastrical administration (each mouse was administered 0.4 mL)
The compounds were administered according to the aforesaid dosage to determine the blood glucose value (−15 minutes).
At 15 minutes after administration, 20% glucose solution was administrated at a dose of 2 g/kg and the blood glucose values at 0, 15, 30, 45, 60 and 120 minutes in each mouse were determined by Roche Accu-Chek blood glucose monitoring meter.
Using Excel statistical software: the average value was calculated with avg; SD value was calculated with STDEV; and P value of difference among groups was calculated with TTEST. • AUC calculation formula: AUC=(t15min+t0min)×0.25/2+(t30min+t15min)×0.25/2+(t45min+t30min)×0.25/2+(t60min+t45min)×0.25/2+(t120min+t60min)×1/2 • Wherein t0min, t15min, t30min, t45min, t60min, t120min were blood glucose values determined at different time points.

Data set [2] is described as follows: Pharmacokinetics assay in rats after intragastric administration. Format: in vivo. Particulars: for Vd/F / AUC / CL/F / half-life / MRT / Cmax: both sexes, SD, rat, plasma, po, 5 mg/kg; for Vd/F: read-out: Apparent Distribution Volume Vz/F; for AUC: read-out: Area under Curve AUC; for CL/F: read-out: Clearance CL/F (converted); for half-life: read-out: Half-Life t½ (converted); for MRT: read-out: Mean Residence Time MRT; for Cmax: read-out: Plasma Conc. Cmax. How it is done:
The compounds of the present invention were administered intragastrically to determine the drug concentration in plasma at different time points. The pharmacokinetic behavior of the compounds of the present invention was studied and evaluated in rats.
Compounds of Example 1, Example 2, Example 13 and Example 30
16 healthy adult SD rats were divided into 4 groups with 4 in each group, half male and half female. Rats were purchased from SINO-BRITSH SIPPR/BK LAB. ANIMAL LTD., CO, License number: SCXK (Shanghai) 2008-0016
The appropriate amount of test compounds were weighed and added to 0.5% sodium carboxymethyl cellulose to prepare a 0.5 mg/mL suspension using microwave.
After an overnight fast, the rats were administered intragastrically a dose of 5.0 mg/kg, at an administration volume of 10 mL/kg. Blood samples were taken before administration and after administration at different time points over 24.0 hours, using heparin as an anticoagulant. The separated plasma samples were stored at −20° C. The rats were fed 2 hours after administration.
Blood samples (0.1 mL) were taken before administration and at 1.0, 2.0, 3.0, 4.0, 6.0, 8.0, 11.0, 24.0 and 48.0 hours after administration, which were stored in heparinized tubes and centrifuged for 5 minutes at 3,500 rpm to separate blood plasma. The plasma samples were stored at −20° C. The rats were fed 2 hours after administration.
The content of the different test compounds in rat plasma samples after the intragastric administration was determined by LC/MS/MS method. The linearity of the method is 1.00˜2000 ng/ml. The blood sample was analyzed after protein precipitation was accomplished by the addition of methanol.

[3] abbreviates: single oral dose 40 mg/kg, 40 mg/kg.

The source of these data is US9139548B2, “Polycyclic derivatives, preparation process and pharmaceutical use thereof” (Jiangsu Hengrui Medicine Co., Ltd., priority 2012, dated 2015).

SMILES strings stand for the structures.

A word on the EC50: it is the concentration at which the effect is half-maximal. In general, AUC refers to concentration integrated over time. Usually half-life stands for how long it takes for the measured level to halve. Usually MRT stands for a mean duration of stay, worked out from the concentration-time curve. What is called Cmax is the maximum level reached in the sampled fluid or tissue.

T1 sequence (O14842 whole entry): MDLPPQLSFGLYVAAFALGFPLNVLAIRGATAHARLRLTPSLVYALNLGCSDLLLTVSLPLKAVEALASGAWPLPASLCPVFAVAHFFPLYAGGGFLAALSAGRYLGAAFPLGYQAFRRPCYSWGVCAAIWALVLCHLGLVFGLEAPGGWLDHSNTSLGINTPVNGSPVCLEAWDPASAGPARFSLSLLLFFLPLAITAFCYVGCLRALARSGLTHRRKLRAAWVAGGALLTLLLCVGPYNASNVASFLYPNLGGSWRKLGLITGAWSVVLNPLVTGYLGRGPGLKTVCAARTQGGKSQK

Consider `Cc1cc(O[C@H]2CCOC2)cc(C)c1-c1ccc(F)c(COc2ccc3c(c2)OC[C@H]3CC(=O)O)c1` [Example 18, 2-((S)-6-((4-Fluoro-2′,6′-dimethyl-4′-(((S)-tetrahydrofuran-3-yl)oxy)biphenyl-3-yl)methoxy)-2,3-dihydrobenzofuran-3-yl)acetic acid], for which the EC50 on GPR40 was found to be 28 nM. The “AUC decrease rate %” value in data set [1] (single oral dose 40 mg/kg) was 44.13%.
For the compound `Cc1cc(O[C@@H]2CCOC2)cc(C)c1-c1ccc(F)c(COc2ccc3c(c2)OC[C@H]3CC(=O)O)c1` [Example 26, 2-((S)-6-((4-fluoro-2′,6′-dimethyl-4′-(((R)-tetrahydrofuran-3-yl)oxy)biphenyl-3-yl)methoxy)-2,3-dihydrobenzofuran-3-yl)acetic acid], the EC50 on GPR40 stood at 52 nM. Also, the “AUC decrease rate %” value in data set [1] (single oral dose 40 mg/kg) is 26.06%.
Consider `Cc1cc(O[C@@H]2COC[C@H]2O)cc(C)c1-c1cccc(COc2ccc3c(c2)OC[C@H]3CC(=O)O)c1` [Example 30, 2-((S)-6-((4′-(((3R,4R)-4-hydroxytetrahydrofuran-3-yl)oxy)-2′,6′-dimethylbiphenyl-3-yl)methoxy)-2,3-dihydrobenzofuran-3-yl)acetic acid], for which, on GPR40, the EC50 stood at 34 nM. Moreover, in data set [2], the Vd/F worked out at 1.88 ± 0.66 L/kg, the AUC was 38200 ± 15000 ng·h/mL, the CL/F is 2.33 mL/min/kg and the half-life was 9.35 ± 0.55 h. In data set [2], the MRT turned out to be 13.3 ± 2 h and the Cmax is 2730 ± 478 ng/mL. Also, the “AUC decrease rate %” value in data set [1] (setting [3]) turned out to be 29.59%.
Consider `Cc1cc(O[C@H]2CCOC2)c(F)c(C)c1-c1cccc(COc2ccc3c(c2)OC[C@H]3CC(=O)O)c1` [Example 19, 2-((S)-6-((3′-Fluoro-2′,6′-dimethyl-4′-(((S)-tetrahydrofuran-3-yl)oxy)biphenyl-3-yl)methoxy)-2,3-dihydrobenzofuran-3-yl)acetic acid], for which the EC50 on GPR40 came out at 55 nM. Also, the “AUC decrease rate %” value in data set [1] (single oral dose 40 mg/kg) is 36.78%.
Consider `Cc1cc(OC2CNC2)cc(C)c1-c1cccc(COc2ccc3c(c2)OC[C@H]3CC(=O)O)c1` [Example 16, (S)-2-(6-((4′-(Azetidin-3-yloxy)-2′,6′-dimethylbiphenyl-3-yl)methoxy)-2,3-dihydrobenzofuran-3-yl)acetic acid], for which the EC50 at GPR40 is 15 nM. Also, the “AUC decrease rate %” value in data set [1] (single oral dose 40 mg/kg) is listed as 15.72%.
For `Cc1cc(O[C@H]2COC[C@@H]2O)cc(C)c1-c1cccc(COc2ccc3c(c2)OC[C@H]3CC(=O)O)c1` [Example 29, 2-((S)-6-((4′-(((3S,4S)-4-hydroxytetrahydrofuran-3-yl)oxy)-2′,6′-dimethylbiphenyl-3-yl)methoxy)-2,3-dihydrobenzofuran-3-yl)acetic acid], the EC50 at GPR40 stood at 41 nM. The “AUC decrease rate %” value in data set [1] (single oral dose 20 mg/kg) was 20.41%.
Consider `Cc1cc(O[C@H]2CCOC2)cc(C)c1-c1cccc(COc2ccc3c(c2)OC[C@H]3CC(=O)O)c1` [Example 1, 2-((S)-6-((2′,6′-Dimethyl-4′-(((S)-tetrahydrofuran-3-yl)oxy)biphenyl-3-yl)methoxy)-2,3-dihydrobenzofuran-3-yl)acetic acid], for which, at GPR40, the EC50 stood at 31 nM. In data set [2], the Vd/F amounted to 3.39 ± 1.24 L/kg, the AUC is 21600 ± 8620 ng·h/mL, the CL/F was 4 mL/min/kg and the half-life was 10.1 ± 3.3 h. Further, in data set [2], the MRT turned out to be 14.5 ± 4.7 h and the Cmax stood at 1690 ± 698 ng/mL. The “AUC decrease rate %” value in data set [1] (single oral dose 40 mg/kg) came to 36.08%.
In the case of `Cc1cc(O[C@@H]2CCOC2)cc(C)c1-c1cccc(COc2ccc3c(c2)OC[C@H]3CC(=O)O)c1` [Example 2, 2-((S)-6-((2′,6′-Dimethyl-4′-(((R)-tetrahydrofuran-3-yl)oxy)biphenyl-3-yl)methoxy)-2,3-dihydrobenzofuran-3-yl)acetic acid], the EC50 on GPR40 is 35 nM. Also, in data set [2], the Vd/F is 2.79 ± 0.79 L/kg, the AUC worked out at 32900 ± 11900 ng·h/mL, the CL/F was 2.5 mL/min/kg and the half-life is 13.4 ± 3.8 h. Further, in data set [2], the MRT amounted to 18.9 ± 6 h and the Cmax came out at 2010 ± 511 ng/mL. Also, the “AUC decrease rate %” value in data set [1] (single oral dose 40 mg/kg) turned out to be 29.49%.
For the compound `Cc1cc(O[C@@H]2COC[C@H]2O)cc(C)c1-c1cccc(COc2ccc3c(c2)OC[C@H]3CC(=O)O)c1` (mixture of isomers) [Example 13, 2-((S)-6-((4′-(((3R,4R)/(3S,4S)-4-Hydroxytetrahydrofuran-3-yl)oxy)-2′,6′-dimethylbiphenyl-3-yl)methoxy)-2,3-dihydrobenzofuran-3-yl)acetic acid], the EC50 at GPR40 worked out at 16 nM. Further, in data set [2] (SD rats, 5 mg/Kg), the “Area under Curve AUC” value was found to be 39357 ± 10659 ng·h/mL, the “Clearance CL/F” value turned out to be 2.17 ± 0.5 mL/min/kg, the “Half-Life t½” value stood at 10.0 ± 0.3 h and the “Mean Residence Time MRT” value was found to be 12.5 ± 1.5 h. For the same compound, the “Plasma Conc. Cmax” value in data set [2] (SD rats, 5 mg/Kg) was determined as 3153 ± 482 ng/mL. Moreover, in data set [1] (setting [3]), the “AUC decrease rate %” value is on record as 39.71%.
